Where two headings read alike, the source gives them in different places.
Columns and labels:
Test in all cases: Kinase binding screen
Conditions in all cases: read-out: Percent Control at 100 nM Compound Concentration
PIK3CA(I800L) = PIK3CA(I800L) (Homo sapiens (Human), UniProt P42336, I800L)
PIK4CB = PIK4CB (Homo sapiens (Human), UniProt Q9UBF8)
[1] = biological target: RSK4(Kin.Dom.2-C-terminal) (Homo sapiens (Human), UniProt Q9UK32)
[2] = biological target: ABL1(T315I)-phosphorylated (Homo sapiens (Human), UniProt P00519, T315I)
MEK1 = MEK1 (Homo sapiens (Human), UniProt Q02750)
KIT(L576P) = KIT(L576P) (Homo sapiens (Human), UniProt P10721, L576P)
PLK3 = PLK3 (Homo sapiens (Human), UniProt Q9H4B4)
MKK7 = MKK7 (Homo sapiens (Human), UniProt O14733)
BRK = BRK (Homo sapiens (Human), UniProt Q13882)
Sequence of BRK (Q13882 whole entry): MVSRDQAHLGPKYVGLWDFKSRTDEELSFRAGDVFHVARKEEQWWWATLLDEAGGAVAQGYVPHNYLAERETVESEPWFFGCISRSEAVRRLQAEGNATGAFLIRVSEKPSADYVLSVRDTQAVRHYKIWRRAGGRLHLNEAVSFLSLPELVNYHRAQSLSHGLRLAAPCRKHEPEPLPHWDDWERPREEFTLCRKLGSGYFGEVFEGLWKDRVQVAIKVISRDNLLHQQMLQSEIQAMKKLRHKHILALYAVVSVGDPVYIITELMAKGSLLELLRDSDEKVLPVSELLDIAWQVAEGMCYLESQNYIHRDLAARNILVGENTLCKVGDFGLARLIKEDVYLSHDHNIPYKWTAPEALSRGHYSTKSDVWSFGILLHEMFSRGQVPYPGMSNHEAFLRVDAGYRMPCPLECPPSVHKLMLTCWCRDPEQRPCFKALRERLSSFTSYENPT

BRSK2 = BRSK2 (Homo sapiens (Human), UniProt Q8IWQ3)
Sequence of BRSK2 (Q8IWQ3 whole entry): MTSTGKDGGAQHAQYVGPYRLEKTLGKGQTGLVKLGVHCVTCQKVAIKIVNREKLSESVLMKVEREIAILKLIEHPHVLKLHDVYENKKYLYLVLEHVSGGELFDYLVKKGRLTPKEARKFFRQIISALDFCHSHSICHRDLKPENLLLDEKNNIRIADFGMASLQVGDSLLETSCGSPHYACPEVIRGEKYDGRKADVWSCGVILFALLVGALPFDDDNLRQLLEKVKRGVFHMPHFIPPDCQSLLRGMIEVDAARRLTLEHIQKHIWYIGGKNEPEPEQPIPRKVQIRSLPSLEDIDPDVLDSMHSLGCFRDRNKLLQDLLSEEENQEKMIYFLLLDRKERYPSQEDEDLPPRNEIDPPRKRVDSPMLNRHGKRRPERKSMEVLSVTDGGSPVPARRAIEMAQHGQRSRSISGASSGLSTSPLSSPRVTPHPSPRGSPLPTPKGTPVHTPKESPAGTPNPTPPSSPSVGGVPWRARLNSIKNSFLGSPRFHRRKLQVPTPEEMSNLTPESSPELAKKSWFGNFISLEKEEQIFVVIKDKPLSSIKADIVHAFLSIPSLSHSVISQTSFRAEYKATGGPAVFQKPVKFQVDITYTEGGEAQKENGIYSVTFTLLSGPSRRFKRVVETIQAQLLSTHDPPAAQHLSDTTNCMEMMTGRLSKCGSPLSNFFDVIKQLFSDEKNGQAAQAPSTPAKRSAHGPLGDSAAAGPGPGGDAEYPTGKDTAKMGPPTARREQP

DMPK = DMPK (Homo sapiens (Human), UniProt Q09013)
MAK = MAK (Homo sapiens (Human), UniProt P20794)
Sequence of MAK (P20794 whole entry): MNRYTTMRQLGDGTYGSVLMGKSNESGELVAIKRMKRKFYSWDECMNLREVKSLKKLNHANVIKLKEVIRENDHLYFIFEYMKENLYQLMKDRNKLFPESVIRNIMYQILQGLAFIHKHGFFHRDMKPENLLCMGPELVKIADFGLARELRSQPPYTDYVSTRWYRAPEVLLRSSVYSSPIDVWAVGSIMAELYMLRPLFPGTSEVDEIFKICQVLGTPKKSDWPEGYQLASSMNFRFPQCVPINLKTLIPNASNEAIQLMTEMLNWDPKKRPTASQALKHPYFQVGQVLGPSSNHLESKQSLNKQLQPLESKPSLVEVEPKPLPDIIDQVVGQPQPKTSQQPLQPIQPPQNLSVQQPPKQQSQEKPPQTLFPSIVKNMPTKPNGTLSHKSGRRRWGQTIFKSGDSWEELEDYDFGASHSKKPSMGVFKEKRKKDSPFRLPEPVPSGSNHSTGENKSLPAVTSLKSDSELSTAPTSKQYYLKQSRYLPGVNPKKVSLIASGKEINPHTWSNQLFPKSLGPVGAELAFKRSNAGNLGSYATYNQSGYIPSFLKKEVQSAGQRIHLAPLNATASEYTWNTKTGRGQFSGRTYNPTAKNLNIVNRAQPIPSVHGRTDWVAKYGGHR

LTK = LTK (Homo sapiens (Human), UniProt P29376)
FGFR2 = FGFR2 (Homo sapiens (Human), UniProt P21802)
Sequence of FGFR2 (P21802 22-821): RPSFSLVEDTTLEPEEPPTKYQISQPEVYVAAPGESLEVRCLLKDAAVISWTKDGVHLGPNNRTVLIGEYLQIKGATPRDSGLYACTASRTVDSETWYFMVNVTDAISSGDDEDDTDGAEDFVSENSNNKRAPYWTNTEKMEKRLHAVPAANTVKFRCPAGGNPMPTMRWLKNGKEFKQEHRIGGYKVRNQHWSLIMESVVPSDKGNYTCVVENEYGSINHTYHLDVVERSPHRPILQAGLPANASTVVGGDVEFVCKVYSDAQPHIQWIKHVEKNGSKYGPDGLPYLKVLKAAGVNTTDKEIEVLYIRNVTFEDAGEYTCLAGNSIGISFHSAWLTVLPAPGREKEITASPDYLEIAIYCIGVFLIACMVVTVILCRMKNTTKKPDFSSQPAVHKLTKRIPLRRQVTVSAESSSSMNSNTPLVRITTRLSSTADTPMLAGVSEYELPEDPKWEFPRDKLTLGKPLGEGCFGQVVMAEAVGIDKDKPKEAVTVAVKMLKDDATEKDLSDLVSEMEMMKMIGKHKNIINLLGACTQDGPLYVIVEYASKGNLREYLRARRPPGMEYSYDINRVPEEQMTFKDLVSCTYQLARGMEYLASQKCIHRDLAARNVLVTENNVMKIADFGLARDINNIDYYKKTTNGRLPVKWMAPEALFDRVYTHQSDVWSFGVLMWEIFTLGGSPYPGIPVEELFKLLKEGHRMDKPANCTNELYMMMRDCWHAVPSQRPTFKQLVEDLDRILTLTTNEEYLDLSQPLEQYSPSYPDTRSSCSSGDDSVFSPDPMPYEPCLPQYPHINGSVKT

GRK4 = GRK4 (Homo sapiens (Human), UniProt P32298)
AKT3 = AKT3 (Homo sapiens (Human), UniProt Q9Y243)
[3] = biological target: RSK2(Kin.Dom.1-N-terminal) (Homo sapiens (Human), UniProt P51812)
AMPK-alpha2 = AMPK-alpha2 (Homo sapiens (Human), UniProt P54646)
TGFBR1 = TGFBR1 (Homo sapiens (Human), UniProt P36897)
Sequence of TGFBR1 (P36897 34-503): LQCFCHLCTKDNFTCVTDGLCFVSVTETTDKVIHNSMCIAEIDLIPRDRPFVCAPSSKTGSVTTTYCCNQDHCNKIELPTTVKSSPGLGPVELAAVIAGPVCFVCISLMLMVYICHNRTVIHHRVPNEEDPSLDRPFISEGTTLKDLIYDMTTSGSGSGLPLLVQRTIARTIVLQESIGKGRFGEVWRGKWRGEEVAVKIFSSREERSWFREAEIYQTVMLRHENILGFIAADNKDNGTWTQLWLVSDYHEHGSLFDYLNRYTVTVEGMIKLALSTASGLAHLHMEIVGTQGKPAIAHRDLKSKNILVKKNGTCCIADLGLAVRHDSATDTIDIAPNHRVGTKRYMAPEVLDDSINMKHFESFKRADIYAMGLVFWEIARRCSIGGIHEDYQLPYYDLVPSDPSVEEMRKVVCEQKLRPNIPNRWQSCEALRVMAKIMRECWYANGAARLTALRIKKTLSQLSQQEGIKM

PIP5K2C = PIP5K2C (Homo sapiens (Human), UniProt Q8TBX8)
DRAK1 = DRAK1 (Homo sapiens (Human), UniProt Q9UEE5)
CSNK1A1L = CSNK1A1L (Homo sapiens (Human), UniProt Q8N752)
Sequence of CSNK1A1L (Q8N752 whole entry): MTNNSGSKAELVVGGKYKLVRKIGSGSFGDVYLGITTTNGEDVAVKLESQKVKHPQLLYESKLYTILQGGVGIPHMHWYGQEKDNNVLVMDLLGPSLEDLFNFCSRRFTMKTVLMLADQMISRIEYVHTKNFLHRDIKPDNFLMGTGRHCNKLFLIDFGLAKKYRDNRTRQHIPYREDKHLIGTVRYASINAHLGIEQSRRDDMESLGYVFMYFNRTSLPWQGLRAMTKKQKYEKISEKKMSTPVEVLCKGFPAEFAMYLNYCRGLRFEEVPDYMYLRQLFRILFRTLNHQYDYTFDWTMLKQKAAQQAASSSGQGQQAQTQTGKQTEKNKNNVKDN

PIK3C2G = PIK3C2G (Homo sapiens (Human), UniProt O75747)
MAP3K15 = MAP3K15 (Homo sapiens (Human), UniProt Q6ZN16)
Sequence of MAP3K15 (Q6ZN16 whole entry): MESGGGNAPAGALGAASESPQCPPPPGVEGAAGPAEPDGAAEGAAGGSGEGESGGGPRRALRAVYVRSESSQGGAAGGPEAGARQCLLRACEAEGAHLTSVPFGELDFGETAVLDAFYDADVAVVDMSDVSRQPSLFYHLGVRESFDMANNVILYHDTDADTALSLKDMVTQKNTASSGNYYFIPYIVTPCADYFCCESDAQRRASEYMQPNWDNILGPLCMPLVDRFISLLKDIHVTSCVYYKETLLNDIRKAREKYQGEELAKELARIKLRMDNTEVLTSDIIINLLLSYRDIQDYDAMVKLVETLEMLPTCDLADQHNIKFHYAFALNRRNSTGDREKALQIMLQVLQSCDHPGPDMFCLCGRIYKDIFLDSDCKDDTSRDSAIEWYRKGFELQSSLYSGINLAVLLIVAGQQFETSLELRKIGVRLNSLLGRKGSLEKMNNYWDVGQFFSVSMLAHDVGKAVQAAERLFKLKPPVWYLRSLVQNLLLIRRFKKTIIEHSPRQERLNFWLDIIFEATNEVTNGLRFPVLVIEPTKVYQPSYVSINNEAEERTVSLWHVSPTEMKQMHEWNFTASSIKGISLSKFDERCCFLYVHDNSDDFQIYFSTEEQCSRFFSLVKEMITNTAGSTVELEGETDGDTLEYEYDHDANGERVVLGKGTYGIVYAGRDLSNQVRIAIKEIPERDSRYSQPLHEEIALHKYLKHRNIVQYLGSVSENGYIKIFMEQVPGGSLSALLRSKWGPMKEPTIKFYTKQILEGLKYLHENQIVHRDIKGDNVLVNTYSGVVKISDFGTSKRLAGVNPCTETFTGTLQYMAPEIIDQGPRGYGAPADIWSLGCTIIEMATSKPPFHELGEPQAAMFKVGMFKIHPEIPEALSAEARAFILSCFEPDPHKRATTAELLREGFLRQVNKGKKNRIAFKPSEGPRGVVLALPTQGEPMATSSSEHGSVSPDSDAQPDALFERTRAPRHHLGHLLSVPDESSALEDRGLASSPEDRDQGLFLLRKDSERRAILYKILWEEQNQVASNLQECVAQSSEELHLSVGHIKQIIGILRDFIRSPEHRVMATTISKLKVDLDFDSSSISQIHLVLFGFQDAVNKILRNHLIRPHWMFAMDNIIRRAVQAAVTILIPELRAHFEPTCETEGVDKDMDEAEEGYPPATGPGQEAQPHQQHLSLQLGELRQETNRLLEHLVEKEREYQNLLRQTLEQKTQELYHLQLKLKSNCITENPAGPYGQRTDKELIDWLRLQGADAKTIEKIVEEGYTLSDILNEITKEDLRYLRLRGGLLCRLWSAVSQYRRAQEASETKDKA

WNK1 = WNK1 (Homo sapiens (Human), UniProt Q9H4A3)
INSR = INSR (Homo sapiens (Human), UniProt P06213)

Sequence of RSK4(Kin.Dom.2-C-terminal) (Q9UK32 426-683): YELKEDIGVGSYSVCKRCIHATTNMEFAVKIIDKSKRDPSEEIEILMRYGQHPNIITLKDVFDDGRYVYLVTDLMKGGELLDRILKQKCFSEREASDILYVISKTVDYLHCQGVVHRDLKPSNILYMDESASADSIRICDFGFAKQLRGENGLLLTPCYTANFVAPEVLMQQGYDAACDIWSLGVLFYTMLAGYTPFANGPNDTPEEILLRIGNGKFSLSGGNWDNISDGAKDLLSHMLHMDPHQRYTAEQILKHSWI

CN(C[C@@H](O)Cc1ccccc1)C(=O)c1cncc(C#Cc2cnn(C(F)F)c2)c1 [Example 2, (S)-5-((1-(difluoromethyl)-1H-pyrazol-4-yl)ethynyl)-N-(2-hydroxy-3-phenylpropyl)-N-methylnicotinamide]
remaining activity at 0.1 µM (PIK3CA(I800L); PIK3CA(I800L)): 96% | remaining activity at 0.1 µM (PIK4CB; PIK4CB): 100% | remaining activity at 0.1 µM ([1]; RSK4(Kin.Dom.2-C-terminal)): 100% | remaining activity at 0.1 µM ([2]; ABL1(T315I)-phosphorylated): 80% | remaining activity at 0.1 µM (MEK1; MEK1): 98% | remaining activity at 0.1 µM (KIT(L576P); KIT(L576P)): 100% | remaining activity at 0.1 µM (PLK3; PLK3): 97% | remaining activity at 0.1 µM (MKK7; MKK7): 98% | remaining activity at 0.1 µM (BRK; BRK): 100% | remaining activity at 0.1 µM (BRSK2; BRSK2): 96% | remaining activity at 0.1 µM (DMPK; DMPK): 100% | remaining activity at 0.1 µM (MAK; MAK): 100% | remaining activity at 0.1 µM (LTK; LTK): 100% | remaining activity at 0.1 µM (FGFR2; FGFR2): 100% | remaining activity at 0.1 µM (GRK4; GRK4): 100% | remaining activity at 0.1 µM (AKT3; AKT3): 100% | remaining activity at 0.1 µM ([3]; RSK2(Kin.Dom.1-N-terminal)): 100% | remaining activity at 0.1 µM (AMPK-alpha2; AMPK-alpha2): 89% | remaining activity at 0.1 µM (TGFBR1; TGFBR1): 100% | remaining activity at 0.1 µM (PIP5K2C; PIP5K2C): 63% | remaining activity at 0.1 µM (DRAK1; DRAK1): 95% | remaining activity at 0.1 µM (CSNK1A1L; CSNK1A1L): 100% | remaining activity at 0.1 µM (PIK3C2G; PIK3C2G): 85% | remaining activity at 0.1 µM (MAP3K15; MAP3K15): 100% | remaining activity at 0.1 µM (WNK1; WNK1): 93% | remaining activity at 0.1 µM (INSR; INSR): 100%

CN(C[C@H](Cc1ccccc1)OP(=O)(O)O)C(=O)c1cncc(C#Cc2cnn(C(F)F)c2)c1 [Example 19, (S)-1-(5-((1-(difluoromethyl)-1H-pyrazol-4-yl)ethynyl)-N-methylnicotinamido)-3-phenylpropan-2-yl dihydrogen phosphate]
remaining activity at 0.1 µM (PIK3CA(I800L)): 87% | remaining activity at 0.1 µM (PIK4CB): 98% | remaining activity at 0.1 µM [1]: 100% | remaining activity at 0.1 µM [2]: 92% | remaining activity at 0.1 µM (MEK1): 99% | remaining activity at 0.1 µM (KIT(L576P)): 98% | remaining activity at 0.1 µM (PLK3): 92% | remaining activity at 0.1 µM (MKK7): 96% | remaining activity at 0.1 µM (BRK): 100% | remaining activity at 0.1 µM (BRSK2): 95% | remaining activity at 0.1 µM (DMPK): 100% | remaining activity at 0.1 µM (MAK): 100% | remaining activity at 0.1 µM (LTK): 100% | remaining activity at 0.1 µM (FGFR2): 100% | remaining activity at 0.1 µM (GRK4): 100% | remaining activity at 0.1 µM (AKT3): 100% | remaining activity at 0.1 µM [3]: 94% | remaining activity at 0.1 µM (AMPK-alpha2): 100% | remaining activity at 0.1 µM (TGFBR1): 100% | remaining activity at 0.1 µM (PIP5K2C): 74% | remaining activity at 0.1 µM (DRAK1): 100% | remaining activity at 0.1 µM (CSNK1A1L): 97% | remaining activity at 0.1 µM (PIK3C2G): 78% | remaining activity at 0.1 µM (MAP3K15): 97% | remaining activity at 0.1 µM (WNK1): 94% | remaining activity at 0.1 µM (INSR): 100%

— patent publication US11767310B2, “Nicotinamide RIPK1 inhibitors” (AbbVie Inc., priority 2021, dated 2023)
